According to paper PMC7114261 (Antiviral Research, 2006):
“And” between values parts separate entries of the source, which are not always exact repeats. Identical values can stand only once. Like-named read-outs stand apart in the source and are kept apart here.

Tests used:
SARS-CoV, strain Urbani [1] = experiment: microbe, parasite or virus in culture; assay type: cell-based; settings: Severe acute respiratory syndrome coronavirus; for IC50: Vero 76, read-out: NR assay IC50
SARS-CoV, strain Urbani [2] = experiment: microbe, parasite or virus in culture; assay type: cell-based, Severe acute respiratory syndrome coronavirus
SARS-CoV (Urbani) = test system: SARS-CoV (Urbani); set-up: species or system BALB/c mice; settings: mouse, in vivo
in vivo = settings: BALB/c, mouse
[3] = test system: cytokines in lung homogenates; set-up: species or system BALB/c mice; settings: mouse, in vivo
Vero 76 cells = settings: African green monkey
SARS-CoV = settings: cited from earlier work
in vitro [4] = settings: African green monkey
in vitro [5] = settings: African green monkey, NR assay CC50
[6] = Severe acute respiratory syndrome coronavirus, Vero 76, read-out: Virus yield reduction assay IC90

Structure (SMILES) | IC50 (SARS-CoV, strain Urbani [1]) | IC90 (SARS-CoV, strain Urbani [2]; [6]) | Virus titer ± S.D., Day 3 (SARS-CoV (Urbani)) | Virus titer ± S.D., Day 7 (SARS-CoV (Urbani)) | MTD (in vivo) | further results
N=C(N)c1ncn([C@@H]2O[C@H](CO)[C@@H](O)[C@H]2O)n1 [Viramidine, viramidine] | > 410 µM | – | – | – | – | –
C#Cc1c(C(N)=O)ncn1[C@@H]1O[C@H](CO)[C@@H](O)[C@H]1O [EICAR, 5-ethynyl-1-β-D-ribofuranosylimidazole-4-carboxamide] | 28 µM | > 40 µM | 5.5 ± 0.5 log10 CCID50/g and 5.3 ± 0.3 log10 CCID50/g | 0 log10 CCID50/g | 75 mg/kg | –
NC(=O)c1ncn([C@@H]2O[C@H](CO)[C@@H](O)[C@H]2O)c1O [Mizoribine, mizoribine] | > 40 µM | – | 4.9 ± 0.3 log10 CCID50/g and 4.7 ± 0.6 log10 CCID50/g | 0 log10 CCID50/g | 25 mg/kg | –
COc1c(C)c2c(c(O)c1C/C=C(\C)CCC(=O)O)C(=O)OC2 [MPA, mycophenolic acid] | > 30 µM | – | 5.5 ± 0.2 log10 CCID50/g and 5.3 ± 0.5 log10 CCID50/g | 0 log10 CCID50/g | 75 mg/kg | –
NC(=O)c1ncn([C@@H]2O[C@H](CO)[C@@H](O)[C@H]2O)n1 [Ribavirin, ribavirin] | 320 µM | 560 µM | – | – | – | EC50 (SARS-CoV, strain Urbani [1]; Vero 76, read-out: EC50 by neutral red uptake assay, n = 4): 270 ± 50 µM; EC90 (SARS-CoV, strain Urbani [2]; Severe acute respiratory syndrome coronavirus, Caco-2, read-out: EC90 by virus yield reduction assay): 4100 µM; EC90 (SARS-CoV, strain Urbani [2]; Severe acute respiratory syndrome coronavirus, MA104, read-out: EC90 by virus yield reduction assay): 225 µM; IC90 (SARS-CoV, strain Urbani [2]; read-out: Virus yield reduction assay IC90): 590 µM; Virus in the lungs of mice sacrificed at day 7 (SARS-CoV (Urbani)): virus was not detected; Virus titer (SARS-CoV (Urbani); 75 mg/kg): 0 log10 CCID50/g; Virus titer (SARS-CoV (Urbani); ip, 20 mg/kg): 0 log10 CCID50/g; GM-CSF level in lung homogenate [3]: 7.9 ± 1.9 pg/mL and 10.7 ± 0.9 pg/mL and 7.9 ± 0.5 pg/mL and 15.7 ± 4.2 pg/mL; IL-4 level in lung homogenate [3]: 5.9 ± 3.5 pg/mL and 6.3 ± 0.3 pg/mL and 4.9 ± 0.9 pg/mL and 7.3 ± 0.5 pg/mL; IL-5 level in lung homogenate [3]: 25.6 ± 2.0 pg/mL and 34.2 ± 2.1 pg/mL and 19.8 ± 1.7 pg/mL and 33.4 ± 0.4 pg/mL; IL-9 level in lung homogenate [3]: 134.2 ± 39.3 pg/mL and 140.9 ± 6.7 pg/mL and 101.5 ± 25.7 pg/mL and 126.3 ± 67.6 pg/mL; average CC50 (Vero 76 cells): ~1685 µg/mL; IC50 (SARS-CoV): 2 to 60 µg/mL; CC50 (in vitro [4]): 283 µM; CC50 (in vitro [5]): 402 µM
NC(=O)c1ncn([C@@H]2O[C@H](COP(=O)(O)O)[C@@H](O)[C@H]2O)n1 [Ribavirin monophosphate] | > 30 µM | – | – | – | – | –
